# Assay results taken from paper PMC8001783, “New Lignanamides with Antioxidant and Anti-Inflammatory Activities Screened Out and Identified from Warburgia ugandensis Combining Affinity Ultrafiltration LC-MS with SOD and XOD Enzymes” (Antioxidants, 2021).
# Where “and” joins values, the source holds several entries; their conditions need not be identical. Equal entries are not always repeated.
# Assays:
# [1] = ABTS free radical scavenging assay; settings: pure compounds; 30 min, 734 nm, n = 3
# Method: The ABTS free radical scavenging activities of extracts and pure compounds from stem barks of W. ugandensis were tested according to previous studies with slight modifications. ABTS^+ solution was prepared by mixing equal volumes of potassium persulfate (4.9 mM in H2O) and ABTS (7.0 mM in H2O) and then incubated for 12 h in the darkness. The prepared ABTS^+ solution was diluted with MeOH to ensure an absorbance value about 0.700 ± 0.005 at 734 nm. Firstly, 10 µL of appropriately diluted solution of samples was added to the 190 µL ABTS^+ solution in 96-well plate. Secondly, the mixtures were gently shaken and put at room temperature for 30 min in the darkness. Finally, the absorbance was recorded at 734 nm with multifunctional microplate reader. Trolox was used as positive control, and MeOH was used as blank control. Samples and controls were tested in triplicate (n = 3). The antioxidant activities of ABTS were expressed as IC50 and TEAC values. The inhibition of the ABTS radicals was calculated according to the following formula:ABTS scavenging activity (%) = (1 − absorbance of sample/absorbance of blank control) × 100,(2) where ABTS scavenging activities (%) were plotted against the concentration of samples to acquire the IC50.
# COX-2 (human) = target: T1, COX-2 (human) (Homo sapiens, UniProt P35354); experiment: In vitro COX-2 inhibitory assay (COX-2 (human) inhibitor screening kit); assay type: biochemical; settings: for IC50: fluorescence, ex 560 nm / em 590 nm, triplicate; for COX-2 inhibitory activity compared with the positive control indomethacin: in words, Figure 7
# T1 construct: purchased Beyotime Biotechnology (Shanghai, China) S0168
# T1 sequence (P35354 18-604): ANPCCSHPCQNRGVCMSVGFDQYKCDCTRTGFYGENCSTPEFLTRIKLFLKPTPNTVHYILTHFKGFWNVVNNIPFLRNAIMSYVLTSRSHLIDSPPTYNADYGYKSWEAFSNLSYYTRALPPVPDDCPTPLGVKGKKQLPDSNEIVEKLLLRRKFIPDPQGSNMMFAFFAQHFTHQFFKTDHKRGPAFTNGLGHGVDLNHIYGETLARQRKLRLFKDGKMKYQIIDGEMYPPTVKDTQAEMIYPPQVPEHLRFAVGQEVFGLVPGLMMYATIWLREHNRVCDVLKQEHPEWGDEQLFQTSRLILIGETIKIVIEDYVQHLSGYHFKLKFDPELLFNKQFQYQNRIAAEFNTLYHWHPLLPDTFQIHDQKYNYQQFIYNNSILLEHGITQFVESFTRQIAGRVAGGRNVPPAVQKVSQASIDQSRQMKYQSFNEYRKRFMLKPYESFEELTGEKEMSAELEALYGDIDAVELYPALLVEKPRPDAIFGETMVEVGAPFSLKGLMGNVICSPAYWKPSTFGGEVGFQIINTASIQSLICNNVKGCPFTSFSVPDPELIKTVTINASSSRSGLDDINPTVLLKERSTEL
# Method: Firstly, samples were dissolved in DMSO, and prepared into a series of solutions with different concentrations. COX-2 cofactor working solution, COX-2 working solution, COX-2 probe, and COX-2 substrate were prepared according to manufacturer’s instructions, and then diluted 10 times with COX-2 assay buffer, respectively. Secondly, 150 µL Tris-HCl (pH = 7.8), 10 µL COX-2 cofactor working solution, 10 µL COX-2 working solution, and 10 µL sample solution were sequentially added in the 96-well black plates, mixed and incubated at 37 °C for 10 min. The COX-2 working solution of the blank control group was replaced with an equal volume of COX-2 assay buffer, and the sample was replaced with an equal volume of DMSO; the sample of the 100% enzyme activity control group was replaced with an equal volume of DMSO. Thirdly, 10 µL COX-2 probe was added into each well. Finally, 10 µL of COX-2 substrate was quickly added into each well, and incubated at 37 °C in the darkness for 5 min, and followed by the fluorescence measurement. The excitation and emission wavelengths were 560 nm and 590 nm, respectively. […] The experiments were performed in triplicate. The COX-2 inhibitory activity was expressed as IC50. The inhibition of COX-2 was calculated according to the following formula:COX-2 inhibitory activity (%) = (RFU100%Enzyme − RFUSample)/ (RFU100%Enzyme − RFUBlank) × 100,(3) where COX-2 inhibitory activity (%) was plotted against the concentration of samples to acquire the IC50. RFU100%Enzyme, relative fluorescence unit of 100% enzyme control group; RFUSample, relative fluorescence unit of sample; RFUBlank, relative fluorescence unit of blank group.
Compound,IC50 [1],IC50 (COX-2 (human)) [µM],COX-2 inhibitory activity compared with the positive control indomethacin (COX-2 (human))
COc1cc(C2c3c(cc(O)c(O)c3OC)C=C(C(=O)NCCc3ccc(O)cc3)C2C(=O)NCCc2ccc(O)cc2)cc(O)c1O (stereo not shown) [compound 14],5.38 µM and 5.4 µM,0.123 ± 0.004,
"1-(3,4-dihydroxy-5-methoxyphenyl)-1,2-dihydroxy-7,8-dihydroxy-N-[(3,4-dihydroxyphenyl)-ethyl]-N′-[(4-hydroxyphenyl)-ethyl]-6-methoxynaphthalene-2,3-dicarboxamide [compound 11]",80 ± 10.3 µM,,almost the same inhibitory activities
"O=C(/C=C/c1ccc(O)c(O)c1)NCCc1ccc(O)cc1 [compound 7, N-trans-caffeoyltyramine]",463 ± 157 µM,,almost the same inhibitory activities

# Other lines, results leading:
IC50 [1],IC50 (COX-2 (human)) [µM],COX-2 inhibitory activity compared with the positive control indomethacin (COX-2 (human)),Compound
62.5 ± 4.2 µM,,almost the same inhibitory activities,"C[C@@H]1O[C@@H](O[C@@H]2[C@@H](O)[C@H](O)[C@@H](CO)O[C@H]2c2cc(-c3cc(=O)c4c(O)cc(O)cc4o3)cc(O)c2O)[C@H](O)[C@H](O)[C@H]1O [compound 1, 2-[3-[2-O-(6-deoxy-α-L-mannopyranosyl)-β-D-glucopyranosyl]-4,5-dihydroxyphenyl]-5,7-dihydroxy-4H-1-benzopyran-4-one]"
69.8 ± 6.3 µM,0.713 ± 0.322,,COc1cc(C2c3c(cc(OC)c(O)c3O)C=C(C(=O)NCCc3ccc(O)cc3)C2C(=O)NCCc2ccc(O)cc2)cc(O)c1O (stereo not shown) [compound 13]
